Reference: patent US20150307461A1, “ANTIVIRAL COMPOUNDS” (priority 2012, published 2015)

Key:
Assay in all cases: microbe, parasite or virus in culture
[1] = tested on: pseudotyped VSV G particles (VSVpp); format: cell-based; details: Vesicular stomatitis virus, 72 h, read-out: VSVpp (EC50, μM)
[2] = tested on: Pseudotyped HCV GT1b particles (HCVpp); format: cell-based, HCV GT1b Con1 strain; details: Hepatitis C virus, 72 h, read-out: HCVpp GT-1b (EC50, μM)
[3] = tested on: Pseudotyped HCV GT1a particles (HCVpp); format: cell-based, HCV GT1a H77 strain; details: Hepatitis C virus, 72 h, read-out: HCVpp GT-1a (EC50, μM)

Nc1nc(Nc2ccc(OCc3ccccc3)c(Cl)c2)n[nH]1 [Compound I-37, N*3*-(4-Benzyloxy-3-chloro-phenyl)-1H-[1,2,4]triazole-3,5-diamine]
EC50 [1]: 33.3 µM | EC50 [2]: 13.4 µM | EC50 [3]: 0.92 µM

Nc1nc(Nc2ccc(C(=O)N3CCOCC3)cc2)n[nH]1 [Compound I-23, [4-(5-Amino-1H-[1,2,4]triazol-3-ylamino)-phenyl]-morpholin-4-yl-methanone]
EC50 [1]: 100 µM | EC50 [2]: 100 µM | EC50 [3]: 100 µM

N#Cc1c(Cl)cc(Nc2n[nH]c(N)n2)cc1Cl [Compound I-2, 4-(5-Amino-1H-[1,2,4]triazol-3-ylamino)-2,6-dichloro-benzonitrile]
EC50 [1]: 64.6 µM | EC50 [2]: 0.277 µM | EC50 [3]: 0.009 µM

Nc1nc(Nc2cccc(OC(F)(F)F)c2)n[nH]1 [Compound I-52, N^3-(3-Trifluoromethoxy-phenyl)-1H-[1,2,4]triazole-3,5-diamine]
EC50 [1]: 100 µM | EC50 [2]: 12.6 µM | EC50 [3]: 2.39 µM

Nc1nc(Nc2cccc(S(F)(F)(F)(F)F)c2)n[nH]1 [Compound I-70, N*3*-(3-pentafluorosulfur-phenyl)-1H-[1,2,4]triazole-3,5-diamine]
EC50 [1]: 100 µM | EC50 [2]: 1.1 µM | EC50 [3]: 0.152 µM

CC(C)(C)C#Cc1ccc(Nc2n[nH]c(N)n2)cc1Cl [Compound I-80, N^3-[3-Chloro-4-(3,3-dimethyl-but-1-ynyl)-phenyl]-1H-[1,2,4]triazole-3,5-diamine]
EC50 [1]: 91.6 µM | EC50 [2]: 11.2 µM | EC50 [3]: 1.12 µM

CC(C)(C)c1cc(Nc2n[nH]c(N)n2)cc(C(C)(C)C)c1 [Compound I-19, N*3*-(3,5-Di-tert-butyl-phenyl)-1H-[1,2,4]triazole-3,5-diamine]
EC50 [1]: 87.8 µM | EC50 [2]: 56.8 µM | EC50 [3]: 44.7 µM

CS(=O)(=O)c1ccc(Nc2n[nH]c(N)n2)cc1 [Compound I-20, N*3*-(4-Methanesulfonyl-phenyl)-1H-[1,2,4]triazole-3,5-diamine]
EC50 [1]: 100 µM | EC50 [2]: 100 µM | EC50 [3]: 90.6 µM

Nc1nc(Nc2cc(F)cc(S(F)(F)(F)(F)F)c2)n[nH]1 [Compound I-73, N*3*-(3-Fluoro-5-pentafluorosulfur-phenyl)-1H-[1,2,4]triazole-3,5-diamine]
EC50 [1]: 100 µM | EC50 [2]: 0.188 µM | EC50 [3]: 0.035 µM

CC(C)(C)c1cc(Nc2n[nH]c(N)n2)ccc1C#N [Compound I-16, 4-(5-Amino-1H-[1,2,4]triazol-3-ylamino)-2-tert-butyl-benzonitrile]
EC50 [1]: 100 µM | EC50 [2]: 16.1 µM | EC50 [3]: 5.34 µM

Nc1nc(Nc2cccc(S(=O)(=O)C(F)(F)F)c2)n[nH]1 [Compound I-4, N^3-(3-Trifluoromethanesulfonyl-phenyl)-1H-[1,2,4]triazole-3,5-diamine]
EC50 [1]: 100 µM | EC50 [2]: 0.823 µM | EC50 [3]: 0.412 µM

Nc1nc(Nc2ccc(S(=O)(=O)C(F)(F)F)cc2)n[nH]1 [Compound I-17, N*3*-(4-Trifluoromethanesulfonyl-phenyl)-1H-[1,2,4]triazole-3,5-diamine]
EC50 [1]: 100 µM | EC50 [2]: 14.2 µM | EC50 [3]: 12.6 µM

Nc1nc(Nc2ccc(C#Cc3ccccc3)c(Cl)c2)n[nH]1 [Compound I-14, N*3*-(3-Chloro-4-phenylethynyl-phenyl)-1H-[1,2,4]triazole-3,5-diamine]
EC50 [1]: 100 µM | EC50 [2]: 32.7 µM | EC50 [3]: 5.34 µM

Nc1nc(Nc2cc(Cl)c(Br)c(C(F)(F)F)c2)n[nH]1 [Compound I-42, N3-(4-bromo-3-chloro-5-(trifluoromethyl)phenyl)-1H-1,2,4-triazole-3,5-diamine]
EC50 [2]: 0.404 µM | EC50 [3]: 0.081 µM

Nc1nc(Nc2ccc(C(F)(F)F)c(Cl)c2)n[nH]1 [Compound I-10, N*3*-(3-Chloro-4-trifluoromethyl-phenyl)-1H-[1,2,4]triazole-3,5-diamine]
EC50 [1]: 100 µM | EC50 [2]: 5.14 µM | EC50 [3]: 0.368 µM

CC(C)(C)C#Cc1c(Cl)cc(Nc2n[nH]c(N)n2)cc1Cl [Compound I-79, N^3-[3,5-Dichloro-4-(3,3-dimethyl-but-1-ynyl)-phenyl]-1H-[1,2,4]triazole-3,5-diamine]
EC50 [1]: 66 µM | EC50 [2]: 3.31 µM | EC50 [3]: 0.051 µM

CN(C)S(=O)(=O)c1ccc(Nc2n[nH]c(N)n2)cc1 [Compound I-26, 4-(5-Amino-1H-[1,2,4]triazol-3-ylamino)-N,N-dimethyl-benzenesulfonamide]
EC50 [1]: 100 µM | EC50 [2]: 100 µM | EC50 [3]: 100 µM

Nc1nc(Nc2ccc(Cl)c([N+](=O)[O-])c2)n[nH]1 [Compound I-13, N*3*-(4-Chloro-3-nitro-phenyl)-1H-[1,2,4]triazole-3,5-diamine]
EC50 [1]: 100 µM | EC50 [2]: 4.85 µM | EC50 [3]: 0.539 µM

Nc1nc(Nc2ccc(Cl)c(C(F)(F)F)c2)n[nH]1 [Compound I-51, N^3-(4-Chloro-3-trifluoromethyl-phenyl)-1H-[1,2,4]triazole-3,5-diamine]
EC50 [1]: 53.7 µM | EC50 [2]: 3.44 µM | EC50 [3]: 0.475 µM

Nc1nc(Nc2cc(F)c(Br)c(S(F)(F)(F)(F)F)c2)n[nH]1 [Compound I-83, N*3*-(4-Bromo-3-fluoro-5-pentafluorosulfur-phenyl)-1H-[1,2,4]triazole-3,5-diamine]
EC50 [1]: 32.5 µM | EC50 [2]: 0.17 µM | EC50 [3]: 0.076 µM

Nc1nc(Nc2cc(Cl)c(F)c(C(F)(F)F)c2)n[nH]1 [Compound I-60, N^3-(3-Chloro-4-fluoro-5-trifluoromethyl-phenyl)-1H-[1,2,4]triazole-3,5-diamine]
EC50 [1]: 33.3 µM | EC50 [2]: 0.489 µM | EC50 [3]: 0.071 µM

Nc1nc(Nc2cc(Cl)cc(C(F)(F)F)c2)n[nH]1 [Compound I-50, N^3-(3-Chloro-5-trifluoromethyl-phenyl)-1H-[1,2,4]triazole-3,5-diamine]
EC50 [1]: 100 µM | EC50 [2]: 1.1 µM | EC50 [3]: 0.094 µM

N#Cc1ccc(Nc2n[nH]c(N)n2)cc1Cl [Compound I-12, 4-(5-Amino-1H-[1,2,4]triazol-3-ylamino)-2-chloro-benzonitrile]
EC50 [1]: 100 µM | EC50 [2]: 4.19 µM | EC50 [3]: 0.335 µM

Nc1nc(Nc2cccc(Br)c2)n[nH]1 [Compound I-15, N*3*-(3-Bromo-phenyl)-1H-[1,2,4]triazole-3,5-diamine]
EC50 [1]: 100 µM | EC50 [2]: 18.1 µM | EC50 [3]: 1.41 µM

CC(C)(C)c1cccc(Nc2n[nH]c(N)n2)c1 [Compound I-6, N^3-(3-tert-Butyl-phenyl)-1H-[1,2,4]triazole-3,5-diamine]
EC50 [1]: 100 µM | EC50 [2]: 1.59 µM | EC50 [3]: 0.948 µM

Nc1nc(Nc2cc(Cl)c(Cl)c(Cl)c2)n[nH]1 [Compound I-11, N*3*-(3,4,5-Trichloro-phenyl)-1H-[1,2,4]triazole-3,5-diamine]
EC50 [1]: 100 µM | EC50 [2]: 4.68 µM | EC50 [3]: 0.166 µM

C#Cc1ccc(Nc2n[nH]c(N)n2)cc1Cl [Compound I-9, N*3*-(3-Chloro-4-ethynyl-phenyl)-1H-[1,2,4]triazole-3,5-diamine]
EC50 [1]: 45.5 µM | EC50 [2]: 3.08 µM | EC50 [3]: 0.161 µM

N#Cc1ccc(Nc2n[nH]c(N)n2)cc1C1CC1 [Compound I-35, 4-(5-Amino-1H-1,2,4-triazol-3-ylamino)-2-cyclopropylbenzonitrile]
EC50 [1]: 62.8 µM | EC50 [2]: 1.73 µM | EC50 [3]: 0.34 µM

N#Cc1cc(Cl)cc(Nc2n[nH]c(N)n2)c1 [Compound I-48, 3-(5-Amino-1H-[1,2,4]triazol-3-ylamino)-5-chloro-benzonitrile]
EC50 [1]: 100 µM | EC50 [2]: 5.65 µM | EC50 [3]: 0.558 µM

CNS(=O)(=O)c1ccc(Nc2n[nH]c(N)n2)cc1 [Compound I-22, 4-(5-Amino-1H-[1,2,4]triazol-3-ylamino)-N-methyl-benzenesulfonamide]
EC50 [1]: 100 µM | EC50 [2]: 100 µM | EC50 [3]: 100 µM

CS(=O)(=O)c1ccc(Nc2n[nH]c(N)n2)cc1Cl [Compound I-77, N^3-(3-Chloro-4-methanesulfonyl-phenyl)-1H-[1,2,4]triazole-3,5-diamine]
EC50 [2]: 20.4 µM | EC50 [3]: 1.59 µM

CS(=O)(=O)c1cccc(Nc2n[nH]c(N)n2)c1 [Compound I-21, N*3*-(3-Methanesulfonyl-phenyl)-1H-[1,2,4]triazole-3,5-diamine]
EC50 [1]: 100 µM | EC50 [2]: 41.4 µM | EC50 [3]: 12.6 µM

Nc1nc(Nc2cc(Cl)c(C3CC3)c(Cl)c2)n[nH]1 [Compound I-39]
EC50 [1]: 37.9 µM | EC50 [2]: 0.574 µM | EC50 [3]: 0.015 µM

Nc1nc(Nc2cccc(Cl)c2)n[nH]1 [Compound I-36, N*3*-(3-Chloro-phenyl)-1H-[1,2,4]triazole-3,5-diamine]
EC50 [1]: 100 µM | EC50 [2]: 28.6 µM | EC50 [3]: 1.84 µM

Nc1nc(Nc2cc(Cl)c(I)c(Cl)c2)n[nH]1 [Compound I-3, N^3-(3,5-Dichloro-4-iodo-phenyl)-1H-[1,2,4]triazole-3,5-diamine]
EC50 [1]: 32.7 µM | EC50 [2]: 0.386 µM | EC50 [3]: 0.012 µM

CN(C)C(=O)c1ccc(Nc2n[nH]c(N)n2)cc1 [Compound I-24, 4-(5-Amino-1H-[1,2,4]triazol-3-ylamino)-N,N-dimethyl-benzamide]
EC50 [1]: 100 µM | EC50 [2]: 100 µM | EC50 [3]: 100 µM

Nc1nc(Nc2cc(F)cc(C(F)(F)F)c2)n[nH]1 [Compound I-57, N^3-(3-Fluoro-5-trifluoromethyl-phenyl)-1H-[1,2,4]triazole-3,5-diamine]
EC50 [1]: 100 µM | EC50 [2]: 0.624 µM | EC50 [3]: 0.146 µM

Nc1nc(Nc2ccc3ccccc3c2)n[nH]1 [Compound I-18, N*3*-Naphthalen-2-yl-1H-[1,2,4]triazole-3,5-diamine]
EC50 [1]: 100 µM | EC50 [2]: 27.5 µM | EC50 [3]: 2.95 µM

Nc1nc(Nc2ccc([N+](=O)[O-])c(Cl)c2)n[nH]1 [Compound I-8, N*3*-(3-Chloro-4-nitro-phenyl)-1H-[1,2,4]triazole-3,5-diamine]
EC50 [1]: 98.1 µM | EC50 [2]: 1.15 µM | EC50 [3]: 0.141 µM
